Data set [1] in a line: Experiment 2, formulation screening: dissolution of paclitaxel. Format: physicochemical.
For data set [2] the following is noted: in the human body; cited from earlier work.
The conditions of data set [3]: cited from earlier work.

Each structure is given as a SMILES string.

Regarding `CC(=O)Oc1ccccc1C(=O)[O-].[Na+]` [乙酰水杨酸钠], the “solubilizing (hydrotropic) effect on paclitaxel” value in data set [1] (alone) is recorded as “具有助溶作用”; in data set [1] (used together with 1,2-propanediol), “具有增加的助溶作用”.

For the compound `CC(=O)O[C@H]1C(=O)[C@@]2(C)[C@H]([C@H](OC(=O)c3ccccc3)[C@]3(O)C[C@H](OC(=O)[C@H](O)[C@@H](NC(=O)c4ccccc4)c4ccccc4)C(C)=C1C3(C)C)[C@]1(OC(C)=O)CO[C@@H]1C[C@@H]2O` [紫杉醇, 5β,20-环氧-1,2α,4,7β,10β,13α-六羟基紫杉烷-11-烯-9-酮-4,10-二乙酸酯-2-苯甲酸酯-13[(2’R,3’S)-N-苯甲酰-3-苯基异丝氨酸酯]], the effective bioavailability result in data set [2] is listed as “低”. In data set [3] (methanol, ethanol or chloroform), the “solubility in organic solvents (in words)” value is reported as “溶解”. Moreover, in data set [3] (water), the “solubility in water (in words)” value is listed as “几乎不溶”.

Values taken from patent CN103330941A, “一种紫杉醇注射剂的药物组合物” (Individual, priority 2013, dated 2013).
